# Results from US7018612B1, “Method of preparing a radioactive rhenium complex solution” (Mallinckrodt Inc., priority 1990, dated 2006).
# Assay: Influence of reaction temperature on stability of Re186-HEDP during storage at ambient temperature
# Type: physicochemical
substance,measurement,setting,value
rhenium-186 labelled 1-hydroxyethylidene diphosphonate [Re186-HEDP],Re186-HEDP content at t=0,"labelling by heating 15 minutes in a boiling water bath (just below 100° C.), t=0",99.12%
same,Re186-HEDP content at t=24 h,"labelling by heating 15 minutes in a boiling water bath, storage at ambient temperature, t=24 h",93.72%
